Values quoted from earlier work, collected in US20200261395A1, “METHOD FOR TREATMENT OF ROSACEA” (Sol-Gel Technologies Ltd., priority 2019, published 2020).

Test system: rosacea lesions
Settings: BPO as sole active agent

## O=C(OOC(=O)c1ccccc1)c1ccccc1 [BPO, Benzoyl peroxide]
  Response of rosacea lesions: unresponsive
